Patent publication US20090182028A1, “Plant Components and Extracts and Uses Thereof” (G.I.M. GESELLSCHAFT-FUR INNOVATIVE MEDIZIN G.M.B.H NFG OHG, priority 2006, published 2009)
pEC50: −log10 of the molar value. “Also recorded” adds a separate entry of the source. Read-outs that look alike come from different tables or passages of the source. Values belong to the compound of their own block, whether it stands above or below them.

Key:
Format in all cases: cell-based
human AhR [1] = target: T1, human AhR (Homo sapiens, UniProt P35869); assay: Yeast AhR screen (strain YCM3), assay in plastic tubes
T1 construct: expressed in transfected cells; host or cells: Saccharomyces cerevisiae strain YCM3 (gift of Charles Miller)
Description: (§1) The yeast AhR screen is an in-vitro test to detect transactivating potential of substances on the arylhydrocarbon receptor. The recombinant yeast strain YCM3 of Saccharomyces cerevisiae, which was a present of Charles Miller, was used. The assay procedure was essentially as described by Miller. The human AhR and ARNT genes are integrated into chromosome III of the yeast. The galactose-regulated GAL 1, 10 promotor is accountable for the expression of AhR and ARNT in equal shares by induction with galactose, the carbon source of the medium (GOLD medium-trp). If a ligand of the AhR is present, an AhR/ARNT heterodimer is built and can bind to the five xenobiotic response elements of the lacZ-reporter plasmid and induce the expression of the lacZ-gene. Therefore the transcriptional activation of a ligand is quantified via β-galactosidase activity. […] The yeast AhR assay was performed in 50 ml plastic tubes with conical bottom and in microtiterplates.
A colony of YCM3 was transferred in SCM-trp medium and grown to OD600 of about 2.0. For each experiment a new overnight culture was prepared in SCM-trp medium. For this purpose a 1:10 dilution of the YCM3 yeast stock in SCM-trp medium was prepared. After incubation overnight the culture was diluted to an OD600 of 0.4 and grown again to an OD600 of 1.0 to 1.5. For the assay the culture was 1:50 diluted in Gold galactose-trp media, which contains 1.2% galactose as the inductor. 50 μl of test substance (dissolved in DMSO) and 5 ml of this yeast culture were incubated for 17 h at 30° C. while shaking. The tubes have to be in an inclined position for optimal yeast growth. For the blank only 50 μl of DMSO were added to the yeast culture. A calibration curve with β-naphtoflavone was performed within each test run. After incubation cells were collected by centrifugation at 2500 rpm for 5 min. The supernatant was discarded, the pellets were resuspended in 1 ml lacZ-buffer, transferred into 1.5 ml test tubes and centrifuged at 10 000 rpm and 4° C. for 5 min. The supernatant was removed again and the pellets were resuspended in 100 μl lacZ buffer. Disintegration of the yeast cells was performed by vortexing with glass beads (3 times for 30 s with a rest on ice of 15 s between the vortexes). After centrifugation at 10 000 rpm and 4° C. for 10 min, the clear supernatant was used to perform the β-galactosidase and the protein-assay.
For the β-galactosidase-assay 5 μl from each test tube were transferred to a 96-well microtiterplate. 250 μl of a 1:6 diluted o-nitrophenyl-b-galactopyranoside (ONPG)-solution (dilution with lacZ-buffer) were added to each well. The microtiterplate was incubated at 37° C. until a yellow colour had developed. The reaction was stopped by adding 100 μl of 1 M Na2CO3 and the reaction time was noticed. […] Each determination was carried out in duplicates.
For the protein assay a modified method according to Bradford was performed. 5 μl of the supernatant of each test tube were transferred to the microtiterplate and 250 μl of Bio-Rad protein assay reagent (diluted with water 1:10) were added. […] As reference a standard curve with BSA was employed within each test. Each determination was carried out in duplicates.
The expression of β-galactosidase is equivalent to the quantity of the transactivating activity of substances and samples. The specific enzyme activity is expressed in AhR-units, which are the β-galactosidase-activity normalised to the total protein-level. The data were evaluated according Jungbauer et al..
(§2) For evaluation the AhR-units are plotted against the concentration (logarithmic scaling). The resulting curve is fitted using a logistic dose response function. The calculation and fitting was performed with Table Curve 2D software (Jandel Scientific).

human AhR [2] = target: T1, human AhR; assay: Yeast AhR screen (strain YCM3), assay in microtiterplate
Description: as §1
A colony of YCM3 was transferred in SCM-trp medium and grown to OD600 of about 2.0. For each experiment a new overnight culture was prepared in SCM-trp. For this purpose a 1:10 dilution of the YCM3 yeast stock in SCM-trp medium was prepared. After incubation overnight the culture was diluted to an OD600 of 0.4 and grown again to an OD600 of 1.0 to 1.5. For the assay the culture was 1:50 diluted in Gold galactose-trp media, which contains 1.2% galactose as the inductor.
1 μl of test substance (dissolved in DMSO) and 100 μl of the yeast culture in galactose media were transferred in the wells (flat bottom) of a 96-well sterile microtiterplate. Each determination was carried out in duplicates. A calibration curve with β-naphtoflavone was performed within each test run. For better results only the inner part of the plate was used for the assay, because of a greater evaporation in the outer wells (row A and H, column 1 and 12). 150 μl of the diluted yeast culture were transferred into the outer wells. The microtiterplate was incubated for 17 h at 30° C. and while shaking.
The disintegration of the assay was performed with N-lauroylsarcosine, a strong detergent. A related method was described by Kippert, who used 1.5 ml centrifuge tubes and a disintegration with a 0.2% sarcosyl-solution. For the microtiterplate assay a modified version was used and the disintegration was performed via a 0.5% sarcosyl-solution. To circumvent a centrifugation of the plate and a transfer of the supernatant in another plate, what would complicate the assay unnecessarily, the calculation of the AhR-units was related to the optical density of 600 nm, instead of the protein level. A similar proceeding was applied by Adachi et al. and Miller.
After incubation 150 μl Z-Sarcosyl-buffer to each well were added. Then the OD was measured at 600 nm. For complete disintegration of the cells the plate was incubated for 20 min at 30° C. Afterwards 50 μl of ONPG-solution (a 1:6 diluted) were added to each well and incubated at 37° C. until a yellow colour had developed. The reaction was stopped by adding of 50 μl 1 M Na2CO3 and the reaction time was noticed. The absorption was measured at 405 nm (reference wavelength 620 nm).
The results of the β-galactosidase-assay of the AhR screen in microtiterplates were referenced to cell density (measured as the optical cell density at a wavelength of 600 nm). The calculation of the AhR-units is realised as follows:
OD405 and OD600 are the optical densities at a wavelength of 405 nm respectively 600 nm and Δt is the incubation time at 37° C. in minutes.
as §2

human AhR [3] = target: T1, human AhR; assay: Yeast AhR assay, format (tubes or microtiterplate) not stated
Description: as §1, §2
The equivalent concentrations of the extracts and samples were calculated from the logistic dose-response curve of β-naphtoflavone (FIG. 8) and expressed as nmol β-naphtoflavone per g sample or volume of sample.

[4] = in plastic tubes, logistic dose response fit
[5] = in microtiterplate, logistic dose response fit
[6] = in microtiterplate, logistic dose response fit, read-out: Potency

T1 sequence (P35869 11-848): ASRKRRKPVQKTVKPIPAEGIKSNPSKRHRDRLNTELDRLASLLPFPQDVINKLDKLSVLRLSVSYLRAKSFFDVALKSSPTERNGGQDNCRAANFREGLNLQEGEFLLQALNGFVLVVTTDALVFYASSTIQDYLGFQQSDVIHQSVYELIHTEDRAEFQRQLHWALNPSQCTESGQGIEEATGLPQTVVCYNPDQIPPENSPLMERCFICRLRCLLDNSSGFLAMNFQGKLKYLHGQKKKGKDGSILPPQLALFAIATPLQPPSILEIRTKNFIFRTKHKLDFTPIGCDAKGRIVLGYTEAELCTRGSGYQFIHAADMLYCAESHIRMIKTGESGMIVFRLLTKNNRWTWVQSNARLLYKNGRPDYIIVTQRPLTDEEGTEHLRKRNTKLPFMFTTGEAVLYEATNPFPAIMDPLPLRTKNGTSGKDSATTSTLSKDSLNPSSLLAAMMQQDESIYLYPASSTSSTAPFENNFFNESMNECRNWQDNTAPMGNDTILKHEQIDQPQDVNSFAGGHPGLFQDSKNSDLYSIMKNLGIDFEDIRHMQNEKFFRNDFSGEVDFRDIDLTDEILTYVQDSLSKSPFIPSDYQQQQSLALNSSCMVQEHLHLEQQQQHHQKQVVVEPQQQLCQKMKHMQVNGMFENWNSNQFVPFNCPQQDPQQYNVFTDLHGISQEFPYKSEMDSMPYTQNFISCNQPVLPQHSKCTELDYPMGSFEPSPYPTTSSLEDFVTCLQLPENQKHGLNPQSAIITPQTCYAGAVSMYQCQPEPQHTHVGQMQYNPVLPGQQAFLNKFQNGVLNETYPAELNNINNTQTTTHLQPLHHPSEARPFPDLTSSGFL
T1 sequence (P27540 whole entry partner): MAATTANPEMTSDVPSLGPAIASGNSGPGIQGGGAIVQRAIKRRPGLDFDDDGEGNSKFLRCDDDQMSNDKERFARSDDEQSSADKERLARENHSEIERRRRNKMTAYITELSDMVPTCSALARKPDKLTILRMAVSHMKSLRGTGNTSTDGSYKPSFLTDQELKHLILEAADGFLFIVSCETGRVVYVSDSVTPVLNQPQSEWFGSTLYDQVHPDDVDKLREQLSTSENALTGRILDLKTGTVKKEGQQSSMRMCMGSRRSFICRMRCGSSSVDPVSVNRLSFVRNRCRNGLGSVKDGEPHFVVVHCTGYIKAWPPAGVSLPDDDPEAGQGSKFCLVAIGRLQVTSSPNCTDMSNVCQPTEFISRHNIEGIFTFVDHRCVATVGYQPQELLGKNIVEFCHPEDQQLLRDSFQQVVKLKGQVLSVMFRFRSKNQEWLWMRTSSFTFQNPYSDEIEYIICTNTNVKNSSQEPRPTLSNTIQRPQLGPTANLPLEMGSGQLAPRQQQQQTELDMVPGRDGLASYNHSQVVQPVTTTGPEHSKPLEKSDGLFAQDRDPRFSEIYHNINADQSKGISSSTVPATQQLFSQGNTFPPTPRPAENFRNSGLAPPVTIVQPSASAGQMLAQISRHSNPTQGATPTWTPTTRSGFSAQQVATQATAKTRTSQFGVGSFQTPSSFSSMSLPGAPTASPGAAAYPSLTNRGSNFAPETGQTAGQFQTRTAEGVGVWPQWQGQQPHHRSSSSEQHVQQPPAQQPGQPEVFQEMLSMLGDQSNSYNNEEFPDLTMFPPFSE

Compound: C[C@]12CC[C@@H]3c4ccc(O)cc4CC[C@H]3[C@@H]1CC[C@@H]2O [17-β-Estradiol]
Potency (mol/l) (human AhR [1]; [4]): no activity

Compound: O=c1cc(-c2ccc(O)cc2)oc2cc(O)cc(O)c12 [Apigenin]
Potency (mol/l) (human AhR [2]; [5]): active^c
Potency (mol/l) (human AhR [1]): active^c
transactivation of the AhR (in words) (human AhR [1]; pure compounds in DMSO): a transactivation took place

Compound: COc1ccc(-c2coc3cc(O)cc(O)c3c2=O)cc1 [Biochanin A]
pEC50 (human AhR [2]; [6]): 6.90
pEC50 (human AhR [1]): 6.22

Compound: O=c1oc2cc(O)ccc2c2oc3cc(O)ccc3c12 [Coumestrol]
pEC50 (human AhR [2]): 5.98
pEC50 (human AhR [1]): 5.68

Compound: COc1cc(/C=C/C(=O)CC(=O)/C=C/c2ccc(O)c(OC)c2)ccc1O [Curcumin]
Potency (mol/l) (human AhR [1]; [4]): no activity

Compound: O=c1c(-c2ccc(O)cc2)coc2cc(O)ccc12 [Daidzein]
Potency (mol/l) (human AhR [1]): no activity

Compound: COc1ccc(-c2cc(=O)c3c(O)cc(O[C@@H]4O[C@H](CO[C@@H]5O[C@@H](C)[C@H](O)[C@@H](O)[C@H]5O)[C@@H](O)[C@H](O)[C@H]4O)cc3o2)cc1O [Diosmin]
Potency (mol/l) (human AhR [1]; [4]): no activity

Compound: Oc1ccc([C@H]2COc3cc(O)ccc3C2)cc1 [Equol]
Potency (mol/l) (human AhR [2]): active^c
Potency (mol/l) (human AhR [1]): active^c
transactivation of the AhR (in words) (human AhR [1]; pure compounds in DMSO): a transactivation took place

Compound: COc1cc(/C=C/C(=O)O)ccc1O [Ferulic acid]
Potency (mol/l) (human AhR [1]; [4]): no activity
transactivation of the AhR (in words) (human AhR [1]; pure compounds in DMSO): no activity

Compound: COc1ccc(-c2coc3cc(O)ccc3c2=O)cc1 [Formononetin]
pEC50 (human AhR [2]): 6.60
pEC50 (human AhR [3]): 6.04 to 6.92
pEC50 (human AhR [1]): 6.03

Compound: O=C(O)c1cc(O)c(O)c(O)c1 [Gallic acid]
Potency (mol/l) (human AhR [1]): no activity
transactivation of the AhR (in words) (human AhR [1]): no activity

Compound: OCc1c[nH]c2ccccc12 [Indole-3-carbinol]
pEC50 (human AhR [2]): 5.15
pEC50 (human AhR [3]): 5.15

Compound: CCCCOC(=O)c1ccccc1C(=O)OCCCC [Phtalic acid dibutyl ester]
Potency (mol/l) (human AhR [1]): no activity

Compound: CC(=O)[C@H]1CC[C@H]2[C@@H]3CCC4=CC(=O)CC[C@]4(C)[C@H]3CC[C@]12C [Progesteron]
Potency (mol/l) (human AhR [1]; [4]): no activity
transactivation of the AhR (in words) (human AhR [1]; pure compounds in DMSO): failed also in transactivating the AhR

Compound: O=c1c(O)c(-c2ccc(O)c(O)c2)oc2cc(O)cc(O)c12 [Quercetin]
Potency (mol/l) (human AhR [1]; [4]): no activity
transactivation of the AhR (in words) (human AhR [1]; pure compounds in DMSO): no activity; also recorded: do not activate the AhR

Compound: O=C(Cc1c[nH]c2ccccc12)c1ccco1 [compound “X”, 1-(2-furanyl)2-(3-indolyl)ethanone]
equivalent concentration (human AhR [3]; preliminary isolate from preparative HPLC): 79 μmol β-naphtoflavone per gram sample

Compound: CC[C@H](CC[C@@H](C)[C@H]1CC[C@H]2[C@@H]3CC=C4C[C@@H](O)CC[C@]4(C)[C@H]3CC[C@]12C)C(C)C [β-Sitosterol]
Potency (mol/l) (human AhR [1]; [4]): no activity
transactivation of the AhR (in words) (human AhR [1]; pure compounds in DMSO): failed also in transactivating the AhR

Compound: Catechin
Potency (mol/l) (human AhR [1]; [4]): no activity

Second part, led by results:

Potency (mol/l) (human AhR [1]; [4]): no activity
transactivation of the AhR (in words) (human AhR [1]; pure compounds in DMSO): no activity
Compound: O=C(O)/C=C/c1ccc(O)c(O)c1 [Caffeic acid]

Potency (mol/l) (human AhR [1]; [4]): no activity
Compound: Oc1cc(O)c2c(c1)O[C@H](c1ccc(O)c(O)c1)[C@H](O)C2 [Epicatechin]

Potency (mol/l) (human AhR [1]; [4]): no activity
Compound: O=c1c(-c2ccc(O)cc2)coc2cc(O)cc(O)c12 [Genistein]
transactivation of the AhR (in words) (human AhR [1]; pure compounds in DMSO): no transcriptional activity; also recorded: do not activate the AhR

Potency (mol/l) (human AhR [2]; [5]): active ^c
Potency (mol/l) (human AhR [1]; [4]): active ^c
transactivation of the AhR (in words) (human AhR [1]; pure compounds in DMSO): a transactivation took place
Compound: O=C1C[C@@H](c2ccc(O)cc2)Oc2cc(O)cc(O)c21 [Naringenin]

Potency (mol/l) (human AhR [1]; [4]): no activity
Compound: O=C(CCc1ccc(O)cc1)c1c(O)cc(O)cc1O [Phloretin]

Potency (mol/l) (human AhR [1]): no activity
transactivation of the AhR (in words) (human AhR [1]): no activity
Compound: COc1ccc(-c2cc(=O)c3c(OC)c(OC)c(OC)c(OC)c3o2)cc1 [Tangeritin]

transactivation of the AhR (in words) (human AhR [1]; pure compounds in DMSO): failed also in transactivating the AhR
Compound: CC/C(=C(/CC)c1ccc(O)cc1)c1ccc(O)cc1 [diethylstilbestrol]

pEC50 (human AhR [2]; [6]): 6.55
pEC50 (human AhR [3]; Example 10 text, read-out: EC50 value of the standard compound): ~8.00
pEC50 (human AhR [3]; reference standard, read-out: EC50 value): 7.55
pEC50 (human AhR [1]; in plastic tubes, logistic dose response fit, read-out: Potency): 8.00
Compound: O=c1cc(-c2ccccc2)oc2ccc3ccccc3c12 [β-Naphtoflavone]
